Source: the NIST ThermoML archive (doi:10.1016/j.jct.2010.10.016)

Test: relative permittivity at various frequencies (dimensionless); xn = mol fraction of the nth substance listed
Settings: 101 kPa, Liquid, Frequency=3 MHz, AC method

CCCCOCCO [2-butoxyethan-1-ol] + C[N+](=O)[O-]
relative permittivity
Settings	293.15 K	298.15 K	303.15 K	308.15 K	313.15 K
x2 = 0	9.78	9.35	8.88	8.39	7.91
x2 = 0.05	12.57	11.95	11.28	10.61	9.96
x2 = 0.0999	14.98	14.28	13.54	12.78	12.04
x2 = 0.2	19.71	18.87	18	17.16	16.23
x2 = 0.3	24.36	23.34	22.34	21.34	20.28
x2 = 0.4	28.77	27.63	26.37	25.27	24.13
x2 = 0.5	32.64	31.38	29.98	28.79	27.65
x2 = 0.6	35.72	34.44	32.99	31.85	30.75
x2 = 0.7001	38.28	36.93	35.47	34.31	33.16
x2 = 0.8	40.28	38.93	37.36	36	34.68
x2 = 0.9005	40.93	39.67	37.93	36.51	35.07
x2 = 0.95	39.91	38.78	37.3	36.07	34.84

C[N+](=O)[O-] [nitromethane] + COCCO
relative permittivity
Settings	293.15 K	298.15 K	303.15 K	308.15 K	313.15 K
x1 = 0.05	19.49	18.95	18.48	17.81	17.21
x1 = 0.0998	21.49	20.81	20.26	19.57	18.85
x1 = 0.2	25.34	24.57	23.89	23.11	22.12
x1 = 0.3	29.02	28.08	27.27	26.43	25.3
x1 = 0.4	32.43	31.42	30.47	29.45	28.29
x1 = 0.5	35.32	34.24	33.22	32.16	31.09
x1 = 0.6	37.67	36.51	35.49	34.47	33.47
x1 = 0.7	39.53	38.31	37.26	36.18	35.12
x1 = 0.8002	40.88	39.53	38.38	37.08	35.78
x1 = 0.8999	40.91	39.5	38.23	36.88	35.27
x1 = 0.9503	39.82	38.54	37.28	36.1	34.7
x1 = 1	37.31	36.52	35.66	34.92	34.09
